Results from US8846739B2, “TGR5 agonists” (Exelixis Patent Company LLC, priority 2009, dated 2014).

What was measured:
h-TGR5 = target: T1, h-TGR5 (Homo sapiens, UniProt Q8TDU6); test: TGR5 cAMP Assay using Cisbio cAMP Dynamic 2 htrf assay kit; assay type: cell-based; conditions: hTGR5CRE-luc HEK 293 cells
T1 sequence (Q8TDU6 1-330): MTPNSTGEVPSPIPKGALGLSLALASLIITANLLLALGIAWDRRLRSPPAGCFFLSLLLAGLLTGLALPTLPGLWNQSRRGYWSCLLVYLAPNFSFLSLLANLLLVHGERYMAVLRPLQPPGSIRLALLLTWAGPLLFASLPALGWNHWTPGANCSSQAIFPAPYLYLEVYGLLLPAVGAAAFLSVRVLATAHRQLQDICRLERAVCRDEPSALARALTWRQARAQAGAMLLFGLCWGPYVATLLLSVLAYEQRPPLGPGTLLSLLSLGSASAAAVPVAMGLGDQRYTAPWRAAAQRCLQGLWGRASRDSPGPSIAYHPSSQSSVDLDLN

human TGR5 (h-TGR5) = target: T2, human TGR5 (h-TGR5) (Homo sapiens, UniProt Q8TDU6); test: TGR5/CRE-Luciferase Assay; assay type: cell-based; conditions: HEK 293 hTGR5/CRE-Luc cells, 6 hours incubation, read-out: CRE-Luc Agonist (EC50)
T2 sequence (Q8TDU6 1-330): T1 sequence (Q8TDU6 1-330)
How it was run: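 HEK 293 CRE-Luciferase cells stably expressing the receptor, plated in DMEM 18-20 h before assay, then exposed to serially diluted compounds (DMEM with 5% DMSO) for 6 h. Luciferase read-out after lysis; EC50 from dose-response.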

| SMILES | EC50 (h-TGR5) [nM] | EC50 (human TGR5 (h-TGR5)) [nM] |
| --- | --- | --- |
| COc1cc(C(C)(C)c2cnc(SCc3c(F)cc(S(=O)(=O)N[C@H](CCCC[N+](C)(C)C)C(=O)O)cc3Cl)n2-c2ccc(F)cc2)ccc1Cl [Compound 17i, (R)-5-carboxy-5-(3-chloro-4-((5-(2-(4-chloro-3-methoxyphenyl)propan-2-yl)-1-(4-fluorophenyl)-1H-imidazol-2-ylthio)methyl)-5-fluorophenylsulfonamido)-N,N,N-trimethylpentan-1-aminium 2,2,2-trifluoroacetate] | < 100 | < 100 |
| COc1cc(C(C)(C)c2cnc(SCc3c(F)cc(S(=O)(=O)N[C@H]4CCC[N+](C)(C)C4)cc3Cl)n2-c2ccc(F)cc2)ccc1Cl [Compound 11a, (3S)-3-({[3-chloro-4-({[5-{1-[4-chloro-3-(methyloxy)phenyl]-1-methylethyl}-1-(4-fluorophenyl)-1H-imidazol-2-yl]thio}methyl)-5-fluorophenyl]sulfonyl}amino)-1,1-dimethylpiperidinium] | < 100 | < 100 |
| COc1cc(C(C)(C)c2cnc(SCc3c(F)cc(CCCC[N+](C)(C)C)cc3F)n2-c2ccc(F)cc2)ccc1Cl [Compound 19e, 4-(4-((5-(2-(4-chloro-3-methoxyphenyl)propan-2-yl)-1-(4-fluorophenyl)-1H-imidazol-2-ylthio)methyl)-3,5-difluorophenyl)-N,N,N-trimethylbutan-1-aminium 2,2,2-trifluoroacetate] | < 100 | < 100 |
| CN([C@@H](CCCC[N+](C)(C)C)C(=O)O)S(=O)(=O)c1cc(F)c(CSc2ncc(C(C)(C)c3ccc(Cl)c(Cl)c3)n2-c2ccc(F)cc2)c(Cl)c1 [Compound 17h, (S)-5-carboxy-5-(3-chloro-4-((5-(2-(3,4-dichlorophenyl)propan-2-yl)-1-(4-fluorophenyl)-1H-imidazol-2-ylthio)methyl)-5-fluoro-N-methylphenylsulfonamido)-N,N,N-trimethylpentan-1-aminium 2,2,2-trifluoroacetate] | < 100 | < 100 |
| COc1cc(C(C)(C)c2cnc(SCc3c(F)cc(S(=O)(=O)N4CC(C[N+](C)(C)C)C4)cc3Cl)n2-c2ccc(F)cc2)ccc1Cl [Compound 11r, (1-{[3-chloro-4-({[5-{1-[4-chloro-3-(methyloxy)phenyl]-1-methylethyl}-1-(4-fluorophenyl)-1H-imidazol-2-yl]thio}methyl)-5-fluorophenyl]sulfonyl}azetidin-3-yl)-N,N,N-trimethylmethanaminium] | < 100 | < 100 |
| COc1cc(C(C)(C)c2cnc(SCc3c(F)cc(S(=O)(=O)N(CCO)CCC[N+](C)(C)C)cc3F)n2-c2ccc(F)cc2)ccc1Cl [Compound 12f, 3-(4-((5-(2-(4-Chloro-3-methoxyphenyl)propan-2-yl)-1-(4-fluorophenyl)-1H-imidazol-2-ylthio)methyl)-3,5-difluoro-N-(2-hydroxyethyl)phenylsulfonamido)-N,N,N-trimethylpropan-1-aminium 2,2,2-trifluoroacetate] | < 100 | < 100 |
| COc1cc(C(C)(C)c2cnc(SCc3c(F)cc(S(=O)(=O)N(CCC[N+](C)(C)C)C(C)C)cc3Cl)n2-c2ccc(F)cc2)ccc1F [Compound 14l, 3-[{[3-chloro-5-fluoro-4-({[5-{1-[4-fluoro-3-(methyloxy)phenyl]-1-methylethyl}-1-(4-fluorophenyl)-1H-imidazol-2-yl]thio}methyl)phenyl]sulfonyl} (1-methylethyl)amino]-N,N,N-trimethylpropan-1-aminium] | < 100 | < 100 |
| COc1cc(C(C)(C)c2cnc(SCc3c(F)cc(C(=O)NC4CC[N+](C)(CC(=O)O)CC4)cc3Cl)n2-c2ccc(F)cc2)ccc1Cl (centres unmarked) [Example 3, 1-(Carboxymethyl)-4-(3-chloro-4-((5-(2-(4-chloro-3-methoxyphenyl)propan-2-yl)-1-(4-fluorophenyl)-1H-imidazol-2-ylthio)methyl)-5-fluorobenzamido)-1-methyl-piperidinium 2,2,2-trifluoroacetate] | < 100 | < 100 |
| COc1cc(C(C)(C)c2cnc(SCc3c(F)cc(S(=O)(=O)NCC[N+](C)(C)C)cc3F)n2-c2ccc(F)cc2)ccc1Cl [Example 6k, 2-({[4-({[5-{1-[4-chloro-3-(methyloxy)phenyl]-1-methylethyl}-1-(4-fluorophenyl)-1H-imidazol-2-yl]thio}methyl)-3,5-difluorophenyl]sulfonyl}amino)-N,N,N-trimethylethanaminium] | < 100 | < 100 |
| COc1cc(C(C)(C)c2cnc(SCc3c(F)cc(S(=O)(=O)N4CCC[C@H](C[N+](C)(C)C)C4)cc3Cl)n2-c2ccc(F)cc2)ccc1F [Compound 11w, [(3R)-1-{[3-chloro-5-fluoro-4-({[5-{1-[4-fluoro-3-(methyloxy)phenyl]-1-methylethyl}-1-(4-fluorophenyl)-1H-imidazol-2-yl]thio}methyl)phenyl]sulfonyl}piperidin-3-yl]-N,N,N-trimethylmethanaminium] | < 100 | < 100 |
| COc1cc(-n2c(C(C)(C)c3ccc(Cl)c(Cl)c3)cnc2SCc2c(F)cc(C(=O)NCC[N+](C)(C)C)cc2Cl)ccc1F [Example 2n, 2-[({3-chloro-4-[({5-[1-(3,4-dichlorophenyl)-1-methylethyl]-1-[4-fluoro-3-(methyloxy)phenyl]-1H-imidazol-2-yl}thio)methyl]-5-fluorophenyl}carbonyl)amino]-N,N,N-trimethylethanaminium] | < 100 | < 100 |
| COc1cc(C(C)(C)c2cnc(SCc3c(F)cc(NC(=O)NCC[N+](C)(C)C)cc3Cl)n2-c2ccc(F)cc2)ccc1Cl [Example 5] | < 100 | < 100 |
| COc1cc(C(C)(C)c2cnc(SCc3c(F)cc(S(=O)(=O)N(CCC[N+](C)(C)C)[C@H](C)C(=O)O)cc3F)n2-c2ccc(F)cc2)ccc1Cl [Compound 14a, (R)-3-(N-(1-carboxyethyl)-4-((5-(2-(4-chloro-3-methoxyphenyl)propan-2-yl)-1-(4-fluorophenyl)-1H-imidazol-2-ylthio)methyl)-3,5-difluorophenylsulfonamido)-N,N,N-trimethylpropan-1-aminium 2,2,2-trifluoroacetate] | < 100 | < 100 |
| CC[N+](C)(C)C1CCN(S(=O)(=O)c2cc(F)c(CSc3ncc(C(C)(C)c4ccc(F)c(OC)c4)n3-c3ccc(F)cc3)c(Cl)c2)CC1 [Compound 11q, 1-{[3-chloro-5-fluoro-4-({[5-{1-[4-fluoro-3-(methyloxy)phenyl]-1-methylethyl}-1-(4-fluorophenyl)-1H-imidazol-2-yl]thio}methyl)phenyl]sulfonyl}-N-ethyl-N,N-dimethylpiperidin-4-aminium] | < 100 | < 100 |
| COc1ccc(C(C)(C)c2cnc(SCc3c(F)cc(S(=O)(=O)N(C)[C@@H](CCC[N+](C)(C)C)C(=O)O)cc3F)n2-c2ccc(F)cc2)cc1Cl [Compound 14g, (S)-4-carboxy-4-(4-((5-(2-(3-chloro-4-methoxyphenyl)propan-2-yl)-1-(4-fluorophenyl)-1H-imidazol-2-ylthio)methyl)-3,5-difluoro-N-methylphenylsulfonamido)-N,N,N-trimethylbutan-1-aminium chloride] | < 100 | < 100 |
| COc1cc(C(C)(C)c2cnc(SCc3c(F)cc(S(=O)(=O)N(CCCC[N+](C)(C)C)C(C)(C)C(=O)O)cc3F)n2-c2ccc(F)cc2)ccc1Cl [Compound 14ai, 4-(N-(2-carboxypropan-2-yl)-4-((5-(2-(4-chloro-3-methoxyphenyl)propan-2-yl)-1-(4-fluorophenyl)-1H-imidazol-2-ylthio)methyl)-3,5-difluorophenylsulfonamido)-N,N,N-trimethylbutan-1-aminium 2,2,2-trifluoroacetate] | < 100 | < 100 |
| COc1cc(C(C)(C)c2cnc(SCc3c(F)cc(S(=O)(=O)N4CCC([N+](C)(C)C)CC4)cc3Cl)n2-c2ccc(F)cc2)ccc1Cl [Compound 11f, 1-{[3-chloro-4-({[5-{1-[4-chloro-3-(methyloxy)phenyl]-1-methylethyl}-1-(4-fluorophenyl)-1H-imidazol-2-yl]thio}methyl)-5-fluorophenyl]sulfonyl}-N,N,N-trimethylpiperidin-4-aminium] | < 100 | < 100 |
| COC(=O)C(C)(C)N(CCC[N+](C)(C)C)S(=O)(=O)c1cc(F)c(CSc2ncc(C(C)(C)c3ccc(Cl)c(OC)c3)n2-c2ccc(F)cc2)c(F)c1 [Compound 14af, 3-({[4-({[5-{1-[4-chloro-3-(methyloxy)phenyl]-1-methylethyl}-1-(4-fluorophenyl)-1H-imidazol-2-yl]thio}methyl)-3,5-difluorophenyl]sulfonyl}[1,1-dlmethyl-2-(methyloxy)-2-oxoethyl]amino)-N,N,N-trimethylpropan-1-aminium] | < 100 | < 100 |
| CC[N+](CC)(CC)CC#Cc1cc(F)c(CSc2ncc(C(C)(C)c3ccc(Cl)c(OC)c3)n2-c2ccc(F)cc2)c(F)c1 [Compound 18a, 3-(4-((-5-(2-(4-chloro-3-methoxyphenyl)propan-2-yl)-1-(4-fluorophenyl)-1H-imidazol-2-ylthio)methyl)-3,5-difluorophenyl)-N,N,N-triethylprop-2-yn-1-aminium chloride] | < 100 | < 100 |
